From patent publication US8686044B2, “Amide derivative, pest control agent containing the amide derivative, and use of the amide derivative” (Mitsui Chemicals Agro, Inc., priority 2008, dated 2014) come the findings set out here.

Holding throughout (format): in vivo
For one assay, the system named is Spodoptera litura. The assay can be described thus: Pesticidal test against Spodoptera litura (cabbage leaf dip). To be noted: foliar, 144 h, concentration 1 ppm, 2-stage larvae, examined after 6 days, 25° C., read-out: pesticidal rate. Put shortly:
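Cabbage leaf pieces dipped 30 seconds in compound solution at a predetermined concentration and air-dried, then offered to second-stage larvae, five per group in two replicates. Held at 25° C. Living and dead larvae counted after 6 days.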

For the next assay, the system named is Laodelphax striatellus. The assay can be described thus: Pesticidal test against Laodelphax striatellus (rice seedling spray). To be noted: 144 h, concentration 100 ppm, 3-stage larvae, examined after 6 days, 25° C., read-out: pesticidal rate. Put shortly:
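Rice seedlings sprayed with 2.5 ml acetone solution of compound at a predetermined concentration, air-dried, then infested with third-stage Laodelphax striatellus larvae in capped water-containing tubes at 25 °C. Living and dead insects counted after 6 days; ten larvae per group, two replicates.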

Assay [1] deals with Ctenocephalides Felis. Briefly: Insecticidal test for Ctenocephalides felis, Test Example 3 (dry film in glass tube, 0.96 ml, Table A5). To be noted: adults of Ctenocephalides felis, after 24 hours of exposure, in triplicate. The method, then:
Insecticidal Test for Ctenocephalides felis
0.96 ml of a solution of acetone, the active ingredient, prepared to the prescribed concentration was added dropwise to a glass tube with a flat bottom (internal diameter: 3.6 cm, height: 12 cm), and the solvent was evaporated at room temperature to form a dry film of the agent on the bottom surface. About 10 adults of Ctenocephalides felis per glass tube were added, and they were contact-exposed to the test compound. After 24 hours of the exposure, the conditions of the adults were examined and classified into “alive” and “dead (including a moribund condition)” to determine the death rate was determined (in triplicate).
As the comparative compounds, the following Compounds (D) and (E) disclosed in WO2009/080203, and fipronil were used.

The subject of assay [2] is Ctenocephalides Felis. The assay can be described thus: Insecticidal test for Ctenocephalides felis, Test Example 1 (dry film in glass tube, 0.5 ml, Table A4). To be noted: adults.

A value given as a limit tells only on which side of the number the result lay.

Turning to `CN(C(=O)c1ccccc1)c1cccc(C(=O)Nc2c(Br)cc(C(F)(C(F)(F)F)C(F)(F)F)cc2C(F)(F)F)c1F` [7-1574, N-(2-bromo-4-(perfluoropropan-2-yl)-6-(trifluoromethyl)phenyl)-2-fluoro-3-(N-methylbenzamide)benzamide], the pest or weed control at 1 ppm in the assay with Spodoptera litura was not below 70%. The pest or weed control at 100 ppm in the assay with Laodelphax striatellus was not below 70%. Further, the death rate with Ctenocephalides Felis [1] (0.03 μg/ml) stood at 72.0%; with Ctenocephalides Felis [1] (0.1 μg/ml) it was 98.9%. For the same molecule, in the assay on Ctenocephalides Felis [2], the “effect in the examination after 12 hours of the exposure” value is “effective”.
As to `CN(C(=O)c1ccc(F)cc1)c1cccc(C(=O)Nc2c(I)cc(C(F)(C(F)(F)F)C(F)(F)F)cc2C(F)(F)F)c1F` [7-1733, 2-fluoro-3-(4-fluoro-N-methylbenzamide)-N-(2-iodo-4-(perfluoropropan-2-yl)-6-(trifluoromethyl)phenyl)benzamide], the pest or weed control at 1 ppm in the assay with Spodoptera litura was not below 70%. In addition, the pest or weed control at 100 ppm in the assay with Laodelphax striatellus is not below 70%. Moreover, the death rate is recorded as 21.1% in the assay with Ctenocephalides Felis [1] (0.03 μg/ml) and 91.6% in the assay with Ctenocephalides Felis [1] (0.1 μg/ml).
